Source: US10695347B2, “Pyrimidine derivative and use thereof” (Hubei Bio-Pharmaceutical Industrial Technological Institute …, priority 2015, dated 2020)
pIC50: −log10 of the molar value.

Legend:
ALK = ALK (Homo sapiens (Human), UniProt Q9UM73); assay: Inhibition of ALK kinase activity (Caliper mobility shift); format: biochemical
Experimental: (§1) Inhibition of Compound I Against ALK Kinase Activity
(§2) • I. Preparation of 1× kinase buffer and stop buffer
(§3) 1) 1× Kinase Buffer • 50 mM HEPES. pH 7.5 • 0.0015% Brij-35 • 10 mM MgCl2 • 2 mM DTT • 2) stop buffer • 100 mM HEPES, pH 7.5 • 0.015% Brij-35 • 0.2% Coating Reagent #3 • 50 mM EDTA
(§4) 2. Prepare a Compound Solution to be Tested • Step 2.1 Dilute the compound to 50× of the final desired highest inhibitor concentration in reaction by 100% DMSO. Transfer 100 μl of this compound dilution to a well in a 96-well plate. For example, if desired highest inhibitor concentration is 1 μM, then prepare 50 μM of compound DMSO solution in this step.
(§5) Step 2.2 Further dilute said compound dilution by 3-fold in series, thus obtain 10 concentrations.
(§6) Step 2.3 Add 100 μl of 100% DMSO to two empty wells for no compound control and no enzyme control in the same 96-well plate. Mark the plate as source plate.
(§7) Step 2.4 Prepare an intermediate plate
(§8) Transfer 10 μl of each compound from the source plate to a new 96-well plate as the intermediate plate.
(§9) Add 90 μl of 1× kinase buffer to each well of the intermediate plate. Mix the compounds in the intermediate plate for 10 min on a shaker.
(§10) Transfer 5 μl of each well from the 96-well intermediate plate to a 384-well plate in duplicate. For example, A1 of the 96-well plate is transferred to A1 and A2 of the 384-well plate. A2 of the 96-well plate is transferred to A3 and A4 of the 384-well plate, and so on.
(§11) 4.1 Prepare a 2.5× kinase solution
(§12) Add kinase in 1× kinase base buffer, thus obtain the 2.5× kinase solution.
(§13) 4.2 Prepare a 2.5× peptide solution
(§14) 4.3 In each well of the assay plate obtained in step 3, there was 5 μL of the compound in 10% DMSO.
(§15) 4.4 Transfer the 2.5× enzyme solution to the assay plate.
(§16) 4.5 Incubate at room temperature for 10 min.
(§17) 4.6 Transfer the 2.5× peptide solution to the assay plate.
(§18) 4.7 Kinase reaction and stop
(§19) Incubate at 28° C. for 20 min.
(§20) Add 25 μl of stop buffer to stop reaction.
(§21) Conversion rate of the kinase was read via the Caliper.
(§22) 6.1 Copy conversion data from Caliper program.
(§23) 6.2 Convert conversion values to inhibition values with the following formula: Percent inhibition=(max−conversion)/(max−min)*100
(§24) where “max” stands for DMSO control; and “min” stands for low control.
(§25) 6.3 Fit the data in XLfit excel add-in version 4.3.1 and obtain IC50 values according to the following formula: Y=Bottom+(Top−Bottom)/[…].

Karpas299 cells = assay: Suppression of Karpas299 cell proliferation (CellTiter-Glo); format: cell-based; conditions: 3 days incubation; read-out: Inhibition activity on Karpas299 cells IC50
Experimental: (§26) As the amount of ATP can indicate the number of living cells directly, the living cells in culture are able to be quantified by determining the ATP level. In our experiment, we use a living-cell testing kit to quantify the living cells, which utilizes UltraGlow luciferase to generate a stable glow signal in the presence of ATP which is produced by metabolism of living cells, such as respiration. Specifically, a reagent CellTiter-Glo™ was added into cell culture media, and then the luminescent intensity was determined to measure proliferation of cells, as the luminescent intensity is in direct proportion to the ATP level which correlates positively to the number of living cells. The test plate was tested with the Envision (PE).
Cell media: RPMI-1640 medium, fetal calf serum (FCS), antibiotics (Penicillin-Streptomycin)
Assay reagent: Cell Viability Assay Kit CellTiter-Glo
(§27) Others: a 96-well plate, a 384-well plate, DMSO
(§28) Step 3.1 Culturing test cells
Karpas 299 cells were plated into a black 384-well plate, with 2500 cells in 45 μl cell suspension per well. The plate was placed in a carbon dioxide incubator overnight.
(§29) Step 3.2 Preparation of the compounds to be tested
Each compound to be tested was dissolved in DMSO at 10 mM as the stock solution, which was left in a nitrogen-gas tank for storage.
After dilution of 10 μL stock solution (10 mM) into 2.5 mM as a starting working solution, 10 concentrations of the working solutions from 5 μM to 0.25 nM were obtained in duplicate by further dilution in 3-fold series with ECHO.
Step 3.3 Mixing the compound with the test cells
To each well of a new 96-well plate were added 49 μl medium and 1 μl of the compounds to be tested at individual working concentrations (10 concentrations in total). After oscillation,
5 μl of mixture in each well of the 96-well plate was transferred into corresponding wells in the 384-well plate in the step 3.1. The 384-well plate was incubated in the carbon dioxide incubator for 3 days.
To each well of the 384-well plate was added […] reagent Promega CellTiter-Glo. and incubated at room temperature for 10 minutes to stabilize the luminescence signal. The results were read with the PerkinElmer Envision Multi-mode Plate Reader.

ALK L1196M = ALK L1196M (Homo sapiens (Human), UniProt Q9UM73, L1196M); assay: Inhibition of ALK L1196M kinase activity (Caliper mobility shift); format: biochemical
Experimental: as §1, §2, §3, §4, §5, §6, §7, §8, §9, §10, §11, §12, §13, §14, §15, §16, §17, §18, §19, §20, §21, §22, §23, §24, §25

Ba/F3 EML4-ALK cells = assay: Suppression of Ba/F3 EML4-ALK cell proliferation (CellTiter-Glo); format: cell-based; conditions: 3 days incubation
Description: Cell media: RPMI-1640 medium, fetal calf serum (FCS), antibiotics (Penicillin-Streptomycin), IL-3, puromycin
Cell line: Ba/F3 EML4-ALK
Assay reagent: Cell Viability Assay Kit Celliter-Glo
as §27
as §26, with “in medium” for “in culture”, “a cell viability assay” for “a living-cell testing”, “was assayed by” for “was tested with”
as §28
Ba/F3 EML4-ALK cells were planted into a 384-well plate, with almost 300 cells per well. The plate was placed in a carbon dioxide incubator overnight.
as §29
10 concentrations of the working solutions were obtained in duplicate by dilution in 3-fold series with BRAVO.
Step 3.3 Mixing the compound to be tested with the test cells
The compounds to be tested at individual working concentrations were transferred into corresponding wells in the 384-well plate in the step 3.1, with 5 μM as the initial working concentration, and then the 384-well plate was incubated in the carbon dioxide incubator for 3 days.
To each well of the 384-well plate was added the reagent Promega CellTiter-Glo, and incubated at room temperature for 10 minutes to stabilize the luminescence signal. The results were read by the PerkinElmer Envision Multi-mode Plate Reader.

ALK-positive NSCLC = conditions: 88 patients with ALK-positive NSCLCs who had undergone Crizotinib therapy, early clinical trial; cited from earlier work

Chain of ALK (Q9UM73 19-1620): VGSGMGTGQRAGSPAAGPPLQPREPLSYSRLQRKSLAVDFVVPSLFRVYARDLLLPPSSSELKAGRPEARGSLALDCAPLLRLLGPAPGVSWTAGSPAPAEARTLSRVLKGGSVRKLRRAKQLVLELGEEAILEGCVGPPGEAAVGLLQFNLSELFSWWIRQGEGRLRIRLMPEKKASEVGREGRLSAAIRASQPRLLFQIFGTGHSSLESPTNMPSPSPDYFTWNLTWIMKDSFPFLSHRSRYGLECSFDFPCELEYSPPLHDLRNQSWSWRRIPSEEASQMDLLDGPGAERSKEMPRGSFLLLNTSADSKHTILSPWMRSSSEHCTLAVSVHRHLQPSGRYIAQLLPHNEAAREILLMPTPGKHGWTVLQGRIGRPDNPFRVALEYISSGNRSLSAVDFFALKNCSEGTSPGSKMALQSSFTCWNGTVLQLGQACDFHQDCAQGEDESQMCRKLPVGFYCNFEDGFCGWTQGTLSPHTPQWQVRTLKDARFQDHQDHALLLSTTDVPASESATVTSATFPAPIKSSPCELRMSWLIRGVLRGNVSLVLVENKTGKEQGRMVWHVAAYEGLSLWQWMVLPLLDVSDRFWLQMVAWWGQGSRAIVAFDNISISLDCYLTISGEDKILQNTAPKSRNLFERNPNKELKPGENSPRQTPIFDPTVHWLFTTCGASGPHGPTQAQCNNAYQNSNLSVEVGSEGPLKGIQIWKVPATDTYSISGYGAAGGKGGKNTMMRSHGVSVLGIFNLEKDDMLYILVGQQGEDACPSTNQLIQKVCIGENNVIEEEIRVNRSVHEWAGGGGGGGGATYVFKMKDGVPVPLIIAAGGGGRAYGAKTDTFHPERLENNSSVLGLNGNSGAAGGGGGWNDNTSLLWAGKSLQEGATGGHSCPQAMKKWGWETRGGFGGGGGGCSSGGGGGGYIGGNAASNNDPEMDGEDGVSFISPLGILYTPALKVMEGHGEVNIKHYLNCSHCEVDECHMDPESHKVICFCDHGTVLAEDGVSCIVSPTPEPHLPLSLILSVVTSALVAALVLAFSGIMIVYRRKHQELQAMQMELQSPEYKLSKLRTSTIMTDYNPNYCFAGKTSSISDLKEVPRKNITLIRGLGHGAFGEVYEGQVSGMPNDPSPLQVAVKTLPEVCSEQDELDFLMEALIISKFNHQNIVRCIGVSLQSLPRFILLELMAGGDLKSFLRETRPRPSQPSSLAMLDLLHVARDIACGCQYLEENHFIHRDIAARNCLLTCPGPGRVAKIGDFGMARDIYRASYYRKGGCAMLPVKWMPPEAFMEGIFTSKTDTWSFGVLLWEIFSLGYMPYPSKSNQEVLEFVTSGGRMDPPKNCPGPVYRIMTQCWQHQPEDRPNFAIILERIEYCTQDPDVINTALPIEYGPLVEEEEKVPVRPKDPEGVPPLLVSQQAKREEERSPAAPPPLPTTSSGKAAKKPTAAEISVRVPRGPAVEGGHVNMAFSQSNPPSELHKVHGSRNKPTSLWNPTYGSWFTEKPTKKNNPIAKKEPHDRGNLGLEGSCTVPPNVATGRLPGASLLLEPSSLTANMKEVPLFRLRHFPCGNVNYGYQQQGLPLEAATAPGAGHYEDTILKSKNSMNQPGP
Chain of ALK L1196M (Q9UM73 19-1620 L1196M): as the sequence (Q9UM73 19-1620) above, with L1178M counted along it

Structure (SMILES) | pIC50 (ALK) | pIC50 (Karpas299 cells) | pIC50 (ALK L1196M) | pIC50 (Ba/F3 EML4-ALK cells) | response rate (ALK-positive NSCLC)
COc1cc(N2CCN(C(C)C)CC2)c(C)cc1Nc1ncc(OC(F)F)c(Nc2ccccc2S(=O)(=O)C(C)C)n1 [Compound I-115, 5-(difluoromethoxy)-N^2-(4-(4-isopropylpiperazin-1-yl)-2-methoxy-5-methylphenyl)-N^4-(2-(isopropylsulfonyl)phenyl) pyrimidine-2,4-diamine] | > 9.00 | > 7.30 | > 9.00 | > 7.70 | 
Cc1cc(Nc2ncc(Cl)c(Nc3ccccc3S(=O)(=O)C(C)C)n2)c(OC(C)C)cc1C1CCNCC1 [LDK378, Ceritinib] |  |  |  |  | 80%
